# Patent US20230233690A1, “ANDROGEN RECEPTOR PROTEIN DEGRADERS” (THE REGENTS OF THE UNIVERSITY OF MICHIGAN, priority 2020, published 2023)
# Molecular target: T1, AR protein (Homo sapiens, UniProt P10275)
# T1 construct: endogenous in cells; host or cells: VCaP
# T1 sequence (P10275 1-920): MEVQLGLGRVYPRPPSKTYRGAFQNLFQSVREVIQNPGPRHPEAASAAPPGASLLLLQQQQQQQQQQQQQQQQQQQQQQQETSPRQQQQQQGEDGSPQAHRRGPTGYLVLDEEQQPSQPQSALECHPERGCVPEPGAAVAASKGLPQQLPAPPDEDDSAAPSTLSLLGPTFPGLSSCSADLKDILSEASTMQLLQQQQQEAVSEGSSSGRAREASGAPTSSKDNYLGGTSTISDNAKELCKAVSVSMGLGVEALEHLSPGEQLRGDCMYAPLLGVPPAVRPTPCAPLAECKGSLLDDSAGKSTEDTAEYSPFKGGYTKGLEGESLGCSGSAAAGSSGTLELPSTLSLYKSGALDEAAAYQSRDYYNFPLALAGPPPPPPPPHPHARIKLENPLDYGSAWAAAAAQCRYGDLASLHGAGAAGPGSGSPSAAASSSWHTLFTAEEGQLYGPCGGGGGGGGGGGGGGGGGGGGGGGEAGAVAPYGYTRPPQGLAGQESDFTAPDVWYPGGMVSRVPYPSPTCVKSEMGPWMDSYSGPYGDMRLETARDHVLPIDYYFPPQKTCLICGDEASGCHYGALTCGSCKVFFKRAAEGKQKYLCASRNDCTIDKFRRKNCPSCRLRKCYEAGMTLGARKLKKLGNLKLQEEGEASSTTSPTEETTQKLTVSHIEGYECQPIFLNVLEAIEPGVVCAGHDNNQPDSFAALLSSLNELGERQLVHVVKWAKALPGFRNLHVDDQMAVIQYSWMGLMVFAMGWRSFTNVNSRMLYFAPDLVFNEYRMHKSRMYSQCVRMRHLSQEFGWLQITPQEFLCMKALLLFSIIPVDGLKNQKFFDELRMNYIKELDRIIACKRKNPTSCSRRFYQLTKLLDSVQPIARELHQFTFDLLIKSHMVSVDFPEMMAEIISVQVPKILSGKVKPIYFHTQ
# Test: Western blotting of AR protein degradation in VCaP cells
# Type: cell-based
# Procedure: The treated cells were lysed with RIPA buffer. […] GAPDH was used as a loading control.
# Bands were quantified with ImageJ software. The relative numbers of each band obtained from normalization with its corresponding GAPDH level were compared with Prism 8 software. The DC50 values were produced from Prism 8, and the DC90 values were calculated with an equation=Bottom+(Top−Bottom)/(1+10^((Log EC50−X)*HillSlope) based on DC50 and Hillslope values.
SMILES,% AR protein degradation in VCaP Cells (0.001 μM),% AR protein degradation in VCaP Cells (0.01 μM),% AR protein degradation in VCaP Cells (0.1 μM),% AR protein degradation in VCaP Cells (1 μM)
"N#Cc1ccc(O[C@H]2CC[C@H](NC(=O)c3ccc(NCCCCCCNc4ccc5c(c4)C(=O)N(C4CCC(=O)NC4=O)C5=O)cc3)CC2)cc1Cl (stereo partly shown) [compound 212, N-((1r,4r)-4-(3-chloro-4-cyanophenoxy)cyclohexyl)-4-((6-((2-(2,6-dioxopiperidin-3-yl)-1,3-dioxoisoindolin-5-yl)amino)hexyl)amino)benzamide]",25%,70%,86%,82%
"N#Cc1ccc(O[C@H]2CC[C@H](NC(=O)c3ccc(NCCCCCCCNc4ccc5c(c4)C(=O)N(C4CCC(=O)NC4=O)C5=O)cc3)CC2)cc1Cl (stereo partly shown) [compound 213, N-((1r,4r)-4-(3-chloro-4-cyanophenoxy)cyclohexyl)-4-((7-((2-(2,6-dioxopiperidin-3-yl)-1,3-dioxoisoindolin-5-yl)amino)heptyl)amino)benzamide]",17%,40%,62%,38%
"N#Cc1ccc(O[C@H]2CC[C@H](NC(=O)c3ccc(NCCCCCCCCNc4ccc5c(c4)C(=O)N(C4CCC(=O)NC4=O)C5=O)cc3)CC2)cc1Cl (stereo partly shown) [compound 214, N-((1r,4r)-4-(3-chloro-4-cyanophenoxy)cyclohexyl)-4-((8-((2-(2,6-dioxopiperidin-3-yl)-1,3-dioxoisoindolin-5-yl)amino)octyl)amino)benzamide]",27%,43%,65%,46%
"N#Cc1ccc(O[C@H]2CC[C@H](NC(=O)c3ccc(NCCCCCCCCCNc4ccc5c(c4)C(=O)N(C4CCC(=O)NC4=O)C5=O)cc3)CC2)cc1Cl (stereo partly shown) [compound 215, N-((1r,4r)-4-(3-chloro-4-cyanophenoxy)cyclohexyl)-4-((9-((2-(2,6-dioxopiperidin-3-yl)-1,3-dioxoisoindolin-5-yl)amino)nonyl)amino)benzamide]",6%,35%,58%,53%
"N#Cc1ccc(O[C@H]2CC[C@H](NC(=O)c3ccc(NCCCCCCCCCCNc4ccc5c(c4)C(=O)N(C4CCC(=O)NC4=O)C5=O)cc3)CC2)cc1Cl (stereo partly shown) [compound 216, N-((1r,4r)-4-(3-chloro-4-cyanophenoxy)cyclohexyl)-4-((10-((2-(2,6-dioxopiperidin-3-yl)-1,3-dioxoisoindolin-5-yl)amino)decyl)amino)benzamide]",−11%,−9%,1%,22%

# Next, values leading:
% AR protein degradation in VCaP Cells (0.001 μM),% AR protein degradation in VCaP Cells (0.01 μM),% AR protein degradation in VCaP Cells (0.1 μM),% AR protein degradation in VCaP Cells (1 μM),SMILES
7%,17%,39%,35%,"N#Cc1ccc(O[C@H]2CC[C@H](NC(=O)c3ccc(NCCCCCCCCCCCNc4ccc5c(c4)C(=O)N(C4CCC(=O)NC4=O)C5=O)cc3)CC2)cc1Cl (stereo partly shown) [compound 217, N-((1r,4r)-4-(3-chloro-4-cyanophenoxy)cyclohexyl)-4-((11-((2-(2,6-dioxopiperidin-3-yl)-1,3-dioxoisoindolin-5-yl)amino)undecyl)amino)benzamide]"
6%,32%,39%,21%,"N#Cc1ccc(O[C@H]2CC[C@H](NC(=O)c3ccc(N4CCN(CCNc5ccc6c(c5)C(=O)N(C5CCC(=O)NC5=O)C6=O)CC4)cc3)CC2)cc1Cl (stereo partly shown) [compound 218, N-((1r,4r)-4-(3-chloro-4-cyanophenoxy)cyclohexyl)-4-(4-(2-((2-(2,6-dioxopiperidin-3-yl)-1,3-dioxoisoindolin-5-yl)amino)ethyl)piperazin-1-yl)benzamide]"
